Measurements: ChEMBL document CHEMBL1201862, “PubChem BioAssay data set” (2004)
The source made the active and inactive calls.

Experiments:
[1] = Luminescence-based dose response cell-based high throughput screening assay for cytotoxic compounds using the IEC-6 intestinal epithelial cell line. [Related pubchem assays: 1858 (Summary AID.), 1825 (Counterscreen.), 1907 (Confirmation screen.)]; type: functional
cells = type: functional
[2] = Luminescence Cell-Based Dose Retest to Confirm Inhibitors of Cancer Stem Cells. [Related pubchem assays (depositor defined):AID2717, AID2721]; type: functional; settings: Homo sapiens
Paired box protein Pax-8 = Paired box protein Pax-8 (Homo sapiens, UniProt Q06710); test: inhibitors of PAX8-driven TPO luciferase reporter, dose response, RMG-I cells, cherry-pick (AID 687027); type: functional, cell-based;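 also: luciferase reporter driven by Pax8 target thyroperoxidase promoter measured by SteadyGlo luminescence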
[3] = HepG2 cell cytotoxicity, dose response, cytotoxicity control for non-replicating M. tuberculosis project (AID 489018); type: functional; settings: Mycobacterium tuberculosis
[4] = THP-1 cell cytotoxicity, dose response, cytotoxicity control for non-replicating M. tuberculosis project (AID 489025); type: functional
[5] = Vero E6 cell cytotoxicity, dose response, cytotoxicity control for non-replicating M. tuberculosis project, secondary assay (AID 492998); type: functional, VeroE6; settings: Vero C1008
Large T antigen = Large T antigen (Simian virus 40, UniProt P03070); type: functional, Betapolyomavirus macacae;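 also: Confirmatory-stage PubChem screen for compounds that inhibit SV40 T antigen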
Nonstructural protein 1 = Nonstructural protein 1 (Influenza A virus, UniProt Q194T2); type: functional, Influenza A virus (A/California/07/2009(H1N1))
Bcl-2-like protein 10 = Bcl-2-like protein 10 (Homo sapiens, UniProt Q9HD36); test: displacers of TR3 peptide from Bcl-B, primary screen, selectivity assay for Bfl-1 inhibitor project, biochemical, fluorescence polarization, FITC-TR3 peptide (AID 748);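 also: fluorescence polarization from a fluorescein-labelled TR3 peptide binding purified Bcl-B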
fMet-Leu-Phe receptor = target: T1, fMet-Leu-Phe receptor (Homo sapiens, UniProt P21462); test: FPR ligands, dose response (AID 519); type: functional
T1 sequence (P21462 whole entry): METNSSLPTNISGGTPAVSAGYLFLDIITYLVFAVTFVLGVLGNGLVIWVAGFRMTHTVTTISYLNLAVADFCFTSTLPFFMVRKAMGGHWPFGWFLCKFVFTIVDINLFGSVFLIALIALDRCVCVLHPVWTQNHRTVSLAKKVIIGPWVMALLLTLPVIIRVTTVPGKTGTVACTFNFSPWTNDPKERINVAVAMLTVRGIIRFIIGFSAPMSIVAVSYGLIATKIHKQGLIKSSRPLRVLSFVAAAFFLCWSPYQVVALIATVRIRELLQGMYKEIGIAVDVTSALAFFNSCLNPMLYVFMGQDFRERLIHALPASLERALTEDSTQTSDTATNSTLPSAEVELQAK

[6] = target: T2, Apoptotic protease-activating factor 1 (Homo sapiens, UniProt O14727); type: functional
T2 sequence (O14727 whole entry): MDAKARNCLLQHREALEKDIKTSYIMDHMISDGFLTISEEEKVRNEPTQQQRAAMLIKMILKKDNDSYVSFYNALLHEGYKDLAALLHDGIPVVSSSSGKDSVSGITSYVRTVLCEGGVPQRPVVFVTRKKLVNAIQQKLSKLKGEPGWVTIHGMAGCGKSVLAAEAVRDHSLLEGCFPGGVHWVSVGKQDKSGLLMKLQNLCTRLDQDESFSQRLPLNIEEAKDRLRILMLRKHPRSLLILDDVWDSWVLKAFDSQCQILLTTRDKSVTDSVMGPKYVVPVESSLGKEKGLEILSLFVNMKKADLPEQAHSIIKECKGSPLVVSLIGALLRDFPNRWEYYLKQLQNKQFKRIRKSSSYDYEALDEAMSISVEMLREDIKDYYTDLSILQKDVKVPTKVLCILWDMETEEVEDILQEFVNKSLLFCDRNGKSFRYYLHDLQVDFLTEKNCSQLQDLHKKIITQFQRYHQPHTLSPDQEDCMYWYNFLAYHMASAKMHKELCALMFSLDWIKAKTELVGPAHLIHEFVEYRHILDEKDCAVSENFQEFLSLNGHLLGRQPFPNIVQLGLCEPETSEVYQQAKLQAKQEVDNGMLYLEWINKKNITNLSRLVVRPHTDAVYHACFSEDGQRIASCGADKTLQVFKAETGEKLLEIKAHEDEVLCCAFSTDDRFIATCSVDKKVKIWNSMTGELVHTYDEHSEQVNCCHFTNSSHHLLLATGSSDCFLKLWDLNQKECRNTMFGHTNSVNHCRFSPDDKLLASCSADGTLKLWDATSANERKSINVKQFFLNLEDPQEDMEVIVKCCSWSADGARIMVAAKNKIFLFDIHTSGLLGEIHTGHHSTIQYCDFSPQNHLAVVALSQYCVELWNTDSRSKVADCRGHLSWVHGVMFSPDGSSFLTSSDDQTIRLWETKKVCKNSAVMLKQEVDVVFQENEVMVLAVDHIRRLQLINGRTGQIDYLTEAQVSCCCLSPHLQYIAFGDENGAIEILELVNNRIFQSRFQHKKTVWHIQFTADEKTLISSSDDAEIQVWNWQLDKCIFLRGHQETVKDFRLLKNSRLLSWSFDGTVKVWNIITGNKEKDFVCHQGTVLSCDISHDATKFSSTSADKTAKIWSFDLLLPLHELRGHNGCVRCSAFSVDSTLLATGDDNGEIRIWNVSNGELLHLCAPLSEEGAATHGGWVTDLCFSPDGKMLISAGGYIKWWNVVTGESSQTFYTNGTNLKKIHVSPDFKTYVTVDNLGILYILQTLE

Estrogen receptor beta = Estrogen receptor beta (Homo sapiens, UniProt Q92731); test: ERβ–SRC-3 coactivator interaction inhibitors, confirmation, orthogonal assay, biochemical, ELISA, streptavidin-HRP readout (AID 1060)
NADPH oxidase 1 = NADPH oxidase 1 (Homo sapiens, UniProt Q9Y5S8); test: Luminescence-based cell-based dose response assay to identify inhibitors of NADPH oxidase 1 (NOX1).; type: functional
[7] = target: Sphingosine 1-phosphate receptor 2 (Homo sapiens, UniProt O95136); test: Dose Response Cell Based Assay for Agonists of the S1P2 Receptor of Purchased Analogues. [Related pubchem assays: 729, 843, 854, 736 ]; type: functional
[8] = cytotoxicity in HPDE-C7 cells, cell-based, fluorescence, HTS (AID 430); type: functional; settings: Homo sapiens
[9] = cytotoxicity in KRAS-transformed pancreatic duct cells, primary screen, cell-based, fluorescence, HTS (AID 431); type: functional; settings: Homo sapiens;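 also: cell line used: HPDE-C7K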

Large T antigen, sequence (P03070 whole entry): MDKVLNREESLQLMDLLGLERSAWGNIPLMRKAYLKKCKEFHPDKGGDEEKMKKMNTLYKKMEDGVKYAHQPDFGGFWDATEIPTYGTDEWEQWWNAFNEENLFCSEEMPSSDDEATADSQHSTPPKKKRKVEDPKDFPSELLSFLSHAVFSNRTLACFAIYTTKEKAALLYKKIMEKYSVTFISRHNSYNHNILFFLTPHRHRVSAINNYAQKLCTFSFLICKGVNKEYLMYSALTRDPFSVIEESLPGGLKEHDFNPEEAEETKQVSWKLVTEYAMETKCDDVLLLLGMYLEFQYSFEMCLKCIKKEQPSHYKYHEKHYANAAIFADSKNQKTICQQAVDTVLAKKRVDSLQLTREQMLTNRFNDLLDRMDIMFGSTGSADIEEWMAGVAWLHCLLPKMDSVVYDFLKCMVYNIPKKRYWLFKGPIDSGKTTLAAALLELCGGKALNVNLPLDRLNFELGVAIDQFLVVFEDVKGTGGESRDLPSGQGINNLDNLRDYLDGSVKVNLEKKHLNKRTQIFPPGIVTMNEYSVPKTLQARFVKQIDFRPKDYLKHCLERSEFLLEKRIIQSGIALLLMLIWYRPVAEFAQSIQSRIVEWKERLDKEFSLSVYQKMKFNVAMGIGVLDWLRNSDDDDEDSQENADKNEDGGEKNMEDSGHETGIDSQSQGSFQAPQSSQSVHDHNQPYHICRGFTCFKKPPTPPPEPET
Estrogen receptor beta, sequence (Q92731 whole entry): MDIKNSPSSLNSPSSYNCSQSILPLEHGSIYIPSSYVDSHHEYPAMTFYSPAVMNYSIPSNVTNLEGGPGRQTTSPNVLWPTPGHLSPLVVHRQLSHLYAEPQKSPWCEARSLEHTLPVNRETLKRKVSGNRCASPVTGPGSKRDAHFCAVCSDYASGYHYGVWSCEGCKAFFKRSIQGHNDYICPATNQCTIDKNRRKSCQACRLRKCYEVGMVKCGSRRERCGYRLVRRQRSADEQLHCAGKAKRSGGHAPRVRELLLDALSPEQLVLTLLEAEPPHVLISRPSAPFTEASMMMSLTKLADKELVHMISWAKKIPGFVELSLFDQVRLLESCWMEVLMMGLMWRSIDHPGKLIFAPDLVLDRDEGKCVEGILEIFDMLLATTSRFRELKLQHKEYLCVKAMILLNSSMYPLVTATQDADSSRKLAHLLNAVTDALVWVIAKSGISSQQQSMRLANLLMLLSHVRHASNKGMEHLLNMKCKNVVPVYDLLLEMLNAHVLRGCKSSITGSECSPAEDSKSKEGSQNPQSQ
Sphingosine 1-phosphate receptor 2, sequence (O95136 whole entry): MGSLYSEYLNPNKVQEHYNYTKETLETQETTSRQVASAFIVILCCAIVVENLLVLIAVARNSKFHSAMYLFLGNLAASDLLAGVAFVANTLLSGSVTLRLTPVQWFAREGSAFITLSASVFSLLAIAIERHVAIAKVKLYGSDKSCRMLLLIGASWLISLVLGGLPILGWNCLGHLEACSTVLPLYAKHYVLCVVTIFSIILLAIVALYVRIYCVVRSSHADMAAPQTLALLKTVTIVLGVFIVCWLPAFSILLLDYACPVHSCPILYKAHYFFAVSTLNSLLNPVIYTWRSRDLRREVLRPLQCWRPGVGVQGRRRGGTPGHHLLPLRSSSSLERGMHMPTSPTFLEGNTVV
NADPH oxidase 1, sequence (Q9Y5S8 whole entry): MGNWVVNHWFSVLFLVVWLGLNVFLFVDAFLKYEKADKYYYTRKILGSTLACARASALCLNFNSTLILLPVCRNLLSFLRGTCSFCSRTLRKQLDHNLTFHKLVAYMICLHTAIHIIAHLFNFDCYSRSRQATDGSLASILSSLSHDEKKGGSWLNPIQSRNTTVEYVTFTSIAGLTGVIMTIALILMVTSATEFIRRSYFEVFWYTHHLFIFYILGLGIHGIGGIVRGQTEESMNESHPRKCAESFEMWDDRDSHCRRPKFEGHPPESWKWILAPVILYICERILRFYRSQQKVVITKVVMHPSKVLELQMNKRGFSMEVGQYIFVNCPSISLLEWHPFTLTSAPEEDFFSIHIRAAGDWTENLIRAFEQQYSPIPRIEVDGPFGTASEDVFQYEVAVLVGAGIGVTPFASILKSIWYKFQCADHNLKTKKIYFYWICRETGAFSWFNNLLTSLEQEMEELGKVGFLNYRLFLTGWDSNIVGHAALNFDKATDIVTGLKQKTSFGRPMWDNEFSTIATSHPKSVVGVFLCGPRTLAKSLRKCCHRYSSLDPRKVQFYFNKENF
Bcl-2-like protein 10, sequence (Q9HD36 whole entry): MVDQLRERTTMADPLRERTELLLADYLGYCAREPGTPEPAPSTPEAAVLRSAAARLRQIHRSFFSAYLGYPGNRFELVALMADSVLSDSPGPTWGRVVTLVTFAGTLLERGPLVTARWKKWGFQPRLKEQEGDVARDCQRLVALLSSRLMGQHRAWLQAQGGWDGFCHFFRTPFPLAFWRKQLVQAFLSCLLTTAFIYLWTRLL
Paired box protein Pax-8, sequence (Q06710 whole entry): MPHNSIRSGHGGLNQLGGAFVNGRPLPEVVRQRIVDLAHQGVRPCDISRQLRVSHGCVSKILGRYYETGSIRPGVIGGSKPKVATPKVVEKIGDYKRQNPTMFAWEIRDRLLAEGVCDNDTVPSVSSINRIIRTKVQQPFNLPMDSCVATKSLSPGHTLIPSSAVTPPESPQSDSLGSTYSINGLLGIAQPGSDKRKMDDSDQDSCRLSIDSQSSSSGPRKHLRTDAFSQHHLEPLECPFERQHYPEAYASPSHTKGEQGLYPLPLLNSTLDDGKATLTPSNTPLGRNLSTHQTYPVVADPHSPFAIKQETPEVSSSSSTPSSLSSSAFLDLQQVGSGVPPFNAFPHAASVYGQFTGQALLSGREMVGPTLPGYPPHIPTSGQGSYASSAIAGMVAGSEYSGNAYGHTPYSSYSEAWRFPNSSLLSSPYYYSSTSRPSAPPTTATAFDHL
Nonstructural protein 1, sequence (Q194T2 whole entry): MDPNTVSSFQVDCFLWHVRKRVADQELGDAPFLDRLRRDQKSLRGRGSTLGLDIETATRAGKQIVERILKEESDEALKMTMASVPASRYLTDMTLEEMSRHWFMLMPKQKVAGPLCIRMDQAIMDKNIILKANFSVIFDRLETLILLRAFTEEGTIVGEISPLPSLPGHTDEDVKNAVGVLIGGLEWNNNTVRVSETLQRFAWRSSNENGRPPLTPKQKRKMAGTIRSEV

In the case of `O=C(Nc1ccc(N2CCN(C(=O)c3cccs3)CC2)cc1)c1ccc([N+](=O)[O-])o1`, the IC50 [1] is reported as 1.77 µM (active), the IC50 (cells) is reported as < 100 nM (active) and the AC50 [2] is reported as 1.5 µM (active). For the same molecule, the AC50 (Paired box protein Pax-8) was 1.96 µM (active), the CC50 [3] was > 20 µM (active) and the CC50 [4] was 1.18 µM (active). For the same molecule, the CC50 [5] was 1.46 µM (active).

For `CCOC(=O)N1CCN(c2cc(NCCC(=O)O)c3c4c(onc24)-c2ccccc2C3=O)CC1`, the IC50 (Large T antigen) was > 100 µM (active), the IC50 (Nonstructural protein 1) was 20.3 µM (active) and the IC50 (Bcl-2-like protein 10) was 7.52 µM (active). For the same molecule, the Ki (fMet-Leu-Phe receptor) was > 66.7 µM (inactive), the IC50 [6] was 25.6 µM (active) and the IC50 (Estrogen receptor beta) was 5.41 µM (not active).

For `CC(=O)N(C)c1ccc(NC(=O)Nc2ccc(Cl)cc2)cc1`, the IC50 (NADPH oxidase 1) was > 20 µM (not active).

With `CCCNC(=O)CN(C)CC(=O)c1cc(C)n(Cc2ccccc2)c1C` the EC50 [7] was > 30 µM (not active).

In the case of `COc1cccc(C2C=C(c3ccc(OC)cc3OC)Nc3nnnn32)c1` (configuration not stated), the EC50 [8] is reported as 9.03 µM (active) and the EC50 [9] is reported as 8.72 µM (active).
